Reference: publication PMC11013252, “Exploration of the Antibacterial and Anti-Inflammatory Activity of a Novel Antimicrobial Peptide Brevinin-1BW” (Molecules, 2024)
In brackets after ≈: the same amount, converted by molar mass. Positions of bridges follow the written chain, without caps; N, C: chain ends. Residues, ends and D or L forms follow the SMILES beside them.

Experiments:
ABTS radical scavenging = details: at 200 μg/mL, room temperature, 6 min, absorbance 734 nm
Method: ABTS^+ scavenging capacity: A 7 mM ABTS (Med Chem Express, NJ, USA) solution and 140 mM potassium persulfate (Aladdin, Shanghai, China) solution were prepared. A 5 mL volume of ABTS was taken and mixed with 88 μL of potassium persulfate before being placed in the dark at room temperature for 14 h to form the ABTS radical stock solution. The ABTS radical stock solution was then diluted with 95% ethanol by volume to reach an OD734 nm = 0.7. Then, 10 μL of Brevinin-1BW solution was mixed with 50 μL of ABTS radical stock solution, and the resulting absorbance was measured at 734 nm for 6 min at room temperature, which was recorded as A1. The absorbance of 95% ethanol was measured as A2. The same concentration of vitamin C was used as the positive control. The clearance was calculated according to the following equation: ABTS^+ Clearance Rate%=(A2−A1)/A2×100

E. coli (MDR ATCC35218) = test: microbe, parasite or virus in culture; type: cell-based, Escherichia coli; details: ATCC35218, 18 h
Method: (§1) The minimum inhibitory concentration (MIC) of the Brevinin-1BW was measured in 96-well microtiter plates according to the Clinical and Laboratory Standards Institute (CLSI). The activated strains were treated with Mueller Hinton Agar (MHA) solid medium. Single colonies were picked and expanded to the logarithmic growth phase, and the solution was diluted to 2 × 10^6 CFU/mL using the McFarland turbidity standard. The MIC was determined with the two-fold dilution method. Briefly, 50 μL of Mueller Hinton (MH) medium was added to a 96-well plate in advance. Then, 50 μL of AMP solution was added to the first well, and 50 μL was pipetted into the next well after mixing using a row gun, while 50 μL was discarded from the last well. Final concentrations of Brevinin-1BW were 100, 50, 25, 12.5, 6.25, and 3.125 μg/mL. A 50 μL volume of the diluted bacterial solution was added, and the final concentration of the bacterial solution was 1 × 10^6 CFU/mL. This was then placed into a 37 °C incubator for 18 h until the next day to observe the degree of turbidity of the 96-well plate and measure the absorbance of the wells at 600 nm with a multifunctional microplate reader (SpectraMax iD5, Molecular Devices, Sunnyvale, CA, USA). The absence of turbidity and the measured concentration of absorbance being less than the opposing group was taken as the MIC. The positive control used ampicillin at the same final concentration as Brevinin-1BW, the negative control used 50 μL of MH medium mixed with 50 μL of 2 × 10^6 CFU/mL bacterial solution, and the blank contained only 100 μL of MH medium. Three replicate wells were set up for each experiment, and each experiment was repeated three times. The MIC and all concentrations above the MIC of bacterial solution coated on MHA solid medium were placed into 37 °C incubator incubation for 18 h. The lowest concentration resulting in no colony growth was taken as the minimum bactericidal concentration (MBC).

RAW264.7 = type: cell-based, mouse; details: 24 h
Method: Medium was prepared to contain 10% FBS (TransGen Biotech, China) and 1% penicillin-streptomycin (Biosharp, Guangzhou, China). A549, U-2OS, HePG2, HaCaT, HUVEC, and 293T cells were cultured in DMEM medium (Gibco, New York, NY, USA). A375, HCT116, Hela, and RAW264.7 cells were cultured in RPMI 1640 medium (Gibco, New York, NY, USA). The cytotoxicity of Brevinin-1BW was determined using the Cell Counting Kit-8 as follows: detached the cells from cell culture flasks with 0.25% trypsin, counted with a hemocytometer plate and then prepared into a cell suspension containing 5 × 10^3 cells/mL. Then, 90 μL of the cell suspension was inoculated into a 96-well plate and incubated at 37 °C in a 5% CO2-humidified atmosphere for 24 h. A 10 μL volume of the peptide was subsequently added to each well and co-incubated with the cells for 24 h. Then, 10 μL of CCK8 (Abbkine, Wuhan, China) was added to each well and incubated for a further 2 h. The absorbance of each well at 450 nm was measured using a multifunctional enzyme marker. […] Three replicate wells were set up for each experiment, and each experiment was repeated three times. The formula for calculating the cell viability is shown below.

IL-1β = test: Cytokine release in LPS-treated RAW264.7 cells, ELISA; type: cell-based, mouse; details: 4 μg/mL peptide, 1 μg/mL LPS, RAW264.7, 24 h, ELISA of supernatant
Method: (§2) RAW 264.7 mouse macrophages were cultured in DMEM medium (Gibco, New York, NY, USA). containing 10% FBS (TransGen Biotech, Beijing, China) and 1% penicillin-streptomycin (Biosharp, Guangzhou, China) and were seeded into 6-well plates at a cell density of 10^5 cells/mL. After cell adhesion, 1 μg/mL LPS (Solarbio, Beijing, China) and different concentrations of Brevinin-1BW (0, 1, 2, 3, and 4 μg/mL) were incubated for 24 h. Culture supernatants were collected, and the contents of TNFα, IL-6, and IL-1β were determined with enzyme-linked immunosorbent assay (BOSTER, Wuhan, China). All cells were washed twice with precooled PBS, total cellular RNA was extracted using the RNAsimple Total RNA Extraction kit (TIANGEN, Beijing, China), and total RNA concentration and purity were determined using a Thermo Fisher NanoDropOne nucleic acid protein spectrophotometer. HiScript II 1st Strand cDNA Synthesis Kit (Vazyme, Nanjing, China) synthesized cDNA, and we performed real-time PCR using Hieff® qPCR SYBR Green Master Mix (No Rox) (YEASEN, Shanghai, China). The primer sequences for Beta-actin (β-Actin), interleukins (IL-6, IL-1β), tumor necrosis factor (TNF-α), and nitric oxide synthase (iNOS) are shown in Table 6. Cells incubated without peptide and/or LPS were used as negative control. All experiments were repeated three times.

IL-6 = test: as above; type: cell-based, mouse
Method: as §2

TNF-α = test: as above; type: cell-based, mouse
Method: as §2

[1] = test system: S. saprophytics (ATCCBAA750); test: microbe, parasite or virus in culture; type: cell-based, Staphylococcus saprophyticus; details: ATCCBAA750, 18 h
Method: as §1

DPPH radical scavenging = details: at 3.125 μg/mL, 37 °C, 30 min in the dark, absorbance 517 nm; without concentration dependence
Method: DPPH^+ scavenging capacity: A 30 mL volume of […], Shanghai, China) solution was prepared with anhydrous ethanol and adjusted to reach an OD517 nm = 0.7. […] The Brevinin-1BW and DPPH solutions were mixed in equal volumes as the experimental group, incubated at 37 °C in the dark for 30 min, and then measured for the absorbance as A2. Vitamin C was used as the positive control. Its clearance rate was calculated according to the following formula: […]

SMILES: CC[C@H](C)[C@@H]1NC(=O)[C@H](CCCCN)NC(=O)[C@@H](NC(=O)[C@H](Cc2ccccc2)NC(=O)[C@@H](NC(=O)[C@@H](NC(=O)[C@@H]2CCCN2C(=O)[C@H](CC(C)C)NC(=O)[C@H](Cc2ccccc2)NC(=O)[C@H](CO)NC(=O)[C@H](C)NC(=O)[C@H](C)NC(=O)[C@H](CC(C)C)NC(=O)CNC(=O)[C@H](C)NC(=O)[C@H](CC(C)C)NC(=O)[C@H](CC(C)C)NC(=O)[C@@H]2CCCN2C(=O)[C@H](CC(C)C)NC(=O)[C@@H](N)Cc2ccccc2)[C@@H](C)O)[C@@H](C)CC)CSSC[C@@H](C(=O)O)NC(=O)[C@H](CCCCN)NC(=O)[C@H](CCCNC(=N)N)NC(=O)[C@H](CO)NC1=O [Brevinin-1BW] (H-FLPLLAGLAASFLPTIFCKISRKC-OH; disulfide 18-24)
- ABTS radical scavenging (ABTS radical scavenging): less than 20%
- MBC (E. coli (MDR ATCC35218)): >100 µg/mL
- MIC (E. coli (MDR ATCC35218)): >100 µg/mL
- CC50 (RAW264.7): 32.33 ± 0.47 µg/mL (≈ 12.4 µM)
- decrease of IL-1β release (IL-1β): 91.46%
- decrease of IL-6 release (IL-6): 77.82%
- decrease of TNF-α release (TNF-α): 87.31%
- MBC [1]: 12.5 µg/mL (≈ 4.79 µM)
- MIC [1]: 6.25 µg/mL (≈ 2.4 µM)
- scavenging of DPPH radicals (DPPH radical scavenging): more than 70%
